Assay results taken from patent publication US20040185510A1, “Use of labelled CCK-B receptor ligands for the detection and localization of malignant human tumours” (priority 1996, published 2004).
Non-standard residues stand in square brackets, D forms with d. No end group written: not given here. Nle = CCCC[C@H](N)C(=O)O

Columns and labels:
[1] = biological target: T1, CCK-B receptors in medullary thyroid carcinoma (MTC) tissue sections (Homo sapiens, UniProt P32239); assay: Receptor autoradiography: displacement of [125I]-desulfated-CCK-10 (compound 13 or 14) binding to MTC tissue sections; conditions: for affinity of the mono 125I-iodinated radioligand: the two mono-iodinated compounds compared with each other
T1 construct: Receptor autoradiography is performed on 10- and 20-μm thick cryostat sections of the various tumour samples; from tissue; host or cells: human medullary thyroid carcinoma (MTC) tissue sections
T1 sequence (P32239 1-447): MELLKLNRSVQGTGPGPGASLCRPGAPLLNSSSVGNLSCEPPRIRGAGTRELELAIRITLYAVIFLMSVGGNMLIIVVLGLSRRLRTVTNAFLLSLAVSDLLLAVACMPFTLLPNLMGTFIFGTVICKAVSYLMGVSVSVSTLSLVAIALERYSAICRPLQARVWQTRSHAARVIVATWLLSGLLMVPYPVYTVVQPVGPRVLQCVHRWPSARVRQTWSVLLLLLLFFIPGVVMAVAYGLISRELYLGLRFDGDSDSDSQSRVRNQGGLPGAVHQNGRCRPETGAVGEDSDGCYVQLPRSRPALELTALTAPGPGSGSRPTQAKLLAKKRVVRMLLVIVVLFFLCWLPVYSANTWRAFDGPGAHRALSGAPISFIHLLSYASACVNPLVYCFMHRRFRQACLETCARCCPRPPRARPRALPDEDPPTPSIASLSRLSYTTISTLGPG
Method: The tissues are cut on a cryostat, mounted on microscopes slides, and then stored at −20° C. for at least 3 days to improve adhesion of the tissue to the slide. The slide-mounted tissue sections are allowed to reach room temperature and are preincubated in 50 mmol/l Tris-HCl, 130 mmol/l NaCl, 4.7 mmol/l KCl, 5 mmol/l MgCl2, 1 mmol/l ethylene glycol-bi(β-aminoethylether)-N,N,N′,N′-tetraacetic acid, and 0.5% bovine serum albumin, pH 7.4 (preincubation solution), for 30 min. at 25° C. The slides are then incubated in a solution containing the same medium as the preincubation solution except the bovine serum albumin is omitted, and the following compounds are added: 20000 dpm/100 μl of ^125I-CCK, 0.025% bacitracin, 1 mmol/l dithiothreitol, 2 μg/ml chymostatin, and 4 μg/ml leupeptin, pH=6.5. The slides are incubated at room temperature with the radioligand for 150 min., as described by Mantyh et al. (Gasteroenterology 1994, 107, 1019-30). To estimate non-specific binding, paired serial sections are incubated as described above, except that CCK-8 (sulfated) is added to the incubation medium. After the incubation, the slides are rinsed with four washes of 30 sec each in ice-cold preincubation solution, pH 7.4, dipped in ice-cold water, and then quickly dried in a refrigerator under a stream of cold air. The sections are subsequently exposed to a 3H-Ultrofilm for 1 week, to detect the precise location of the radioactivity.
Each point represents the optical density of binding measured in the tumour area. Non-specific binding is subtracted from all values.

[2] = biological target: T1, CCK-B receptors in medullary thyroid carcinoma (MTC) tissue sections; assay: Receptor autoradiography: displacement of [125I]-CCK-10 analog (compound 15) binding to MTC tissue sections; conditions: increasing concentrations of unlabelled peptide, optical density in tumour area
Method: Receptor autoradiography is performed on 10- and 20-μm thick cryostat sections of the various tumour samples, as described by Reubi et al. (Cancer Res. 1990, 50, 5969-5977).
The tissues are cut on a cryostat, mounted on microscopes slides, and then stored at −20° C. for at least 3 days to improve adhesion of the tissue to the slide. The slide-mounted tissue sections are allowed to reach room temperature and are preincubated in 50 mmol/l Tris-HCl, 130 mmol/l NaCl, 4.7 mmol/l KCl, 5 mmol/l MgCl2, 1 mmol/l ethylene glycol-bi(β-aminoethylether)-N,N,N′,N′-tetraacetic acid, and 0.5% bovine serum albumin, pH 7.4 (preincubation solution), for 30 min. at 25° C. […] The sections are subsequently exposed to a 3H-Ultrofilm for 1 week, to detect the precise location of the radioactivity. […]
Tissue sections are incubated with 20,000 cpm/100 μl [^125I]-CCK-10 and increasing concentrations of unlabelled CCK-8 (unsulfated)(▴), CCK-8 (sulfated) (•) or somastotatin (∘). Each point represents the optical density of binding measured in the tumour area. […]
The displacement curves of DTPA substituted CCK-analogs, prepared as described in Example 2, are measured in order to determine the effect of the DTPA group and of substitution of some amino acids by other amino acids. […]
Each point represents the optical density of binding measured in the tumour area. […]

affinity of the mono 125I-iodinated radioligand [1]	displacement of [125I]-CCK-10 analog (compound 15) binding [2]	Substance	other results
same affinity		[^125I-D-Tyr]-Gly-Asp-Tyr-Nle-Gly-Trp-Nle-Asp-Phe-NH2 [compound 13]	
same affinity		D-Tyr-Gly-Asp-[^125I-Tyr]-Nle-Gly-Trp-Nle-Asp-Phe-NH2 [compound 14]	
	complete displacement	^115In-DTPA-Asp-Tyr-Nle-Gly-Trp-Nle-Asp-Phe-NH2 [compound 25]	
	complete displacement	^115In-DTPA-DAsp-Tyr-Nle-Gly-Trp-Nle-Asp-Phe-NH2 [compound 26]	
		[dY]GDY[Nle]GW[Nle]DF-NH2 [compound 12]	displacement of [125I]-desulfated-CCK-10 (compound 13 or 14) binding ([1]; increasing concentrations of unlabelled peptide): complete displacement
